From paper PMC12397098, “3-Monothiopomalidomide, a new immunomodulatory imide drug (IMiD), blunts inflammation and mitigates ischemic stroke in the rat” (GeroScience, 2025)
Like-named read-outs stand apart in the source and are kept apart here.

Assays:
[1] = Pharmacokinetics in the rat, I.V. and P.O.; assay type: in vivo
Procedure: To evaluate the metabolism of 3-MP, ex vivo plasma and liver homogenate studies were performed across species (rat and human), and in vivo pharmacokinetic studies were performed in rats following intravenous (I.V.) and oral (P.O.) administration of 3-MP (5 mg/kg) to time-dependently follow its disappearance from the plasma compartment.
Fig. 5 3-MP pharmacokinetics. 3-MP was administered to rats via the intravenous (I.V.) and oral (P.O.) routes, and time-dependent plasma levels were obtained and subjected to LC–MS/MS analysis (n = 3/group). Pharmacokinetic profile of 3-MP following a 5 mg/kg dose by either the I.V. or P.O route. Time-dependent plasma concentrations of 3-MP (n = 3/group)

[2] = Ex vivo plasma stability, human; assay type: in vitro ADME; settings: 100 μg/ml, 37 °C, 180 min
Procedure: (§1) Ex vivo evaluations of drug plasma and liver microsomal time-dependent breakdown are routinely undertaken to initially characterize the metabolic stability of new pharmacological compounds and were performed by WuXi AppTec (Shanghai, China; Study No. 424847–20,211,214-MMS). Rat and human plasma and liver microsomes were purchased from Xenotech (Sprague Dawley rat, Catalog no. R1000; BioIVT, Westbury, NY) or Corning (mixed human, Catalog no. 452117; Sigma). Rat and human plasma was incubated at 37 °C on a shaker and spiked with 3-MP (100 μg/ml, n = 3). Thereafter, samples were time-dependently (0 to 180 min) removed, immediately frozen (− 80 °C), and subjected to LC–MS/MS analysis at a later time.

[3] = tested on: LPS-induced cytokines (TNF-α, IL-6, IL-10, IL-13) in plasma and cerebral cortex; experiment: Systemic and brain LPS anti-inflammatory study in rats; assay type: in vivo; settings: rat, 1 h pre-treatment, 3-MP 13.23 and 26.47 mg/kg I.P., pomalidomide 25 mg/kg I.P., LPS 1 mg/kg I.P., 4 h
[4] = human, 1 μM
[5] = biological target: T1, Benzodiazepine PBR receptor (Rattus norvegicus, UniProt P16257); experiment: PDSP radioligand binding; settings: read-out: 3-MP concentration required to induce 50% inhibition of PDSP radioligand binding
T1 construct: NIMH Psychoactive Drug Screening Program (PDSP)
Procedure: (§2) To evaluate potential binding at classical neurological drug targets, 3-MP and 3,6’-DP were submitted to the National Institute on Mental Health (NIMH) Psychoactive Drug Screening Program (PDSP: Univ. N Carolina, Chapel Hill, NC, USA < https://pdspdb.unc.edu/pdspweb/ >) as powdered samples in the provided vials. The materials were then prepared at the PDSP in 10% DMSO, subjected to multiple assay screens, and processed as per the PDSP Assay Protocol Book (Version 3, March 2018). Compounds that exceeded an initial 10 uM binding threshold were then delegated for secondary dose–response analysis. This screen comprised a 45-target comprehensive panel of common brain receptor and transporter drug targets.

[6] = biological target: T2, Serotonin 5-HT6 receptor (Homo sapiens, UniProt P50406); experiment: PDSP radioligand binding; settings: read-out: 3-MP concentration required to induce 50% inhibition of PDSP radioligand binding
T2 construct: NIMH Psychoactive Drug Screening Program (PDSP)
T2 sequence (P50406 whole entry): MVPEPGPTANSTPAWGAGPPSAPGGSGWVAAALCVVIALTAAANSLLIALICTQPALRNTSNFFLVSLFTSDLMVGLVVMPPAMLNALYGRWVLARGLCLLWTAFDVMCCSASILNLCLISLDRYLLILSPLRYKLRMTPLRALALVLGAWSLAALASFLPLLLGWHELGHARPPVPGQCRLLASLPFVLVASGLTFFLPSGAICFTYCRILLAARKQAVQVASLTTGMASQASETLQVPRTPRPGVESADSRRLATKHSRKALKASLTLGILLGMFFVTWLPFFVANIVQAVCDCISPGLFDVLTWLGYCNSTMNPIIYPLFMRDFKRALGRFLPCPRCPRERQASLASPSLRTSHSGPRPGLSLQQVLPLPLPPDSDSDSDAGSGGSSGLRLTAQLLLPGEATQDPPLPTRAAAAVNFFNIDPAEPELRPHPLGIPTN
Procedure: as §2

[7] = biological target: Histamine H2 receptor (Homo sapiens, UniProt P25021); experiment: PDSP radioligand binding; settings: read-out: 3-MP concentration required to induce 50% inhibition of PDSP radioligand binding
Chain of Histamine H2 receptor (P25021 whole entry): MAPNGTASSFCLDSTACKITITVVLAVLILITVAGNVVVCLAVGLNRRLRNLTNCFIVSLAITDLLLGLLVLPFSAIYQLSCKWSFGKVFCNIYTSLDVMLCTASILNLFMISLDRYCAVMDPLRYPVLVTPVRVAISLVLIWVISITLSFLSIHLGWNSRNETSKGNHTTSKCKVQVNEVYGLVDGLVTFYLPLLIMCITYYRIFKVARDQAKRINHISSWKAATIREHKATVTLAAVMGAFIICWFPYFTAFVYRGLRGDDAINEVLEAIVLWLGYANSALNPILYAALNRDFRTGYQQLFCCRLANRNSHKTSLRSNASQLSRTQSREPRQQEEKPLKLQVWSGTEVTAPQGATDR
Procedure: as §2

[8] = biological target: Histamine H1 receptor (Homo sapiens, UniProt P35367); experiment: PDSP radioligand binding; settings: read-out: 3-MP concentration required to induce 50% inhibition of PDSP radioligand binding
Chain of Histamine H1 receptor (P35367 whole entry): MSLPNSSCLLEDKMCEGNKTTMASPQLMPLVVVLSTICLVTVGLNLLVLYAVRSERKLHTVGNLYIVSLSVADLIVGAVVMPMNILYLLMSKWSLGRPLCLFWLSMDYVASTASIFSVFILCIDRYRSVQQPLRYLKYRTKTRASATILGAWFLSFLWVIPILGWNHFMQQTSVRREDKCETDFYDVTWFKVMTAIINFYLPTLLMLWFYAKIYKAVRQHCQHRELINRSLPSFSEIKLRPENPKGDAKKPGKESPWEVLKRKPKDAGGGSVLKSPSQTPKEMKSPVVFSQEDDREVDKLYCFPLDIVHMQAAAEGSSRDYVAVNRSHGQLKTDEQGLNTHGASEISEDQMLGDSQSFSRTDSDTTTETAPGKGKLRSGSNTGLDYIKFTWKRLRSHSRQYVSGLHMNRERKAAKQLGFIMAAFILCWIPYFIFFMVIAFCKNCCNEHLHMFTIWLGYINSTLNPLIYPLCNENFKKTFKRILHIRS
Procedure: as §2

[9] = biological target: T3, Adrenergic Alpha2A receptor (Homo sapiens, UniProt P08913); experiment: PDSP radioligand binding; settings: read-out: 3-MP concentration required to induce 50% inhibition of PDSP radioligand binding
T3 construct: NIMH Psychoactive Drug Screening Program (PDSP)
T3 sequence (P08913 whole entry): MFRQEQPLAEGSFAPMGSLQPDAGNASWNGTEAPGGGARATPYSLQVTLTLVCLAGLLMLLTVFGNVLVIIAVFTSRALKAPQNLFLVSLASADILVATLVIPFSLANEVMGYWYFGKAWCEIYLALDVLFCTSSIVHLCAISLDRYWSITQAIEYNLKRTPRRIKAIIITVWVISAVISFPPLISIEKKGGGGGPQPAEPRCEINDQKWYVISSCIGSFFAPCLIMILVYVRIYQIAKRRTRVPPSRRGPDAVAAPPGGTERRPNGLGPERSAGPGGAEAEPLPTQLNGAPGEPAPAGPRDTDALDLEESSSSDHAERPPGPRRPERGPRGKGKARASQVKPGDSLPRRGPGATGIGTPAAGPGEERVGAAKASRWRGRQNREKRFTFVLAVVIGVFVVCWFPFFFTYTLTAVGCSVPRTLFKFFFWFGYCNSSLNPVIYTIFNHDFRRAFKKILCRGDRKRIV
Procedure: as §2

[10] = biological target: T4, Serotonin 5-HT1A receptor (Homo sapiens, UniProt P08908); experiment: PDSP radioligand binding; settings: read-out: 3-MP concentration required to induce 50% inhibition of PDSP radioligand binding
T4 construct: NIMH Psychoactive Drug Screening Program (PDSP)
Procedure: as §2

[11] = biological target: T5, Serotonin 5-HT2A receptor (Homo sapiens, UniProt P28223); experiment: PDSP radioligand binding; settings: read-out: 3-MP concentration required to induce 50% inhibition of PDSP radioligand binding
T5 construct: NIMH Psychoactive Drug Screening Program (PDSP)
T5 sequence (P28223 whole entry): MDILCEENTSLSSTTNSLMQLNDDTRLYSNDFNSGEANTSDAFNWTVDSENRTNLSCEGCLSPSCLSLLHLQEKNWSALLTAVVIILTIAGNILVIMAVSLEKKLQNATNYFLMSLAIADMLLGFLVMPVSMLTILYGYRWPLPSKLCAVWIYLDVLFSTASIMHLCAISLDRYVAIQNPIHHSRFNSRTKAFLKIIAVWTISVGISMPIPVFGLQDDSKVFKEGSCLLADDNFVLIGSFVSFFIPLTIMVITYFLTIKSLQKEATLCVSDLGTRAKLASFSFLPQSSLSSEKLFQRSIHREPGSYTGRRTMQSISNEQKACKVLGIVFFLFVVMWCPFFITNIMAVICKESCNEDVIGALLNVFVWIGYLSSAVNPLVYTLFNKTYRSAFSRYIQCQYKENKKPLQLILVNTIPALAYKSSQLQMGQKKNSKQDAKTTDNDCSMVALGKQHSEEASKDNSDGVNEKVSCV
Procedure: as §2

[12] = biological target: Muscarinic M1 receptor (Homo sapiens, UniProt P11229); experiment: PDSP radioligand binding; settings: read-out: 3-MP concentration required to induce 50% inhibition of PDSP radioligand binding
Chain of Muscarinic M1 receptor (P11229 whole entry): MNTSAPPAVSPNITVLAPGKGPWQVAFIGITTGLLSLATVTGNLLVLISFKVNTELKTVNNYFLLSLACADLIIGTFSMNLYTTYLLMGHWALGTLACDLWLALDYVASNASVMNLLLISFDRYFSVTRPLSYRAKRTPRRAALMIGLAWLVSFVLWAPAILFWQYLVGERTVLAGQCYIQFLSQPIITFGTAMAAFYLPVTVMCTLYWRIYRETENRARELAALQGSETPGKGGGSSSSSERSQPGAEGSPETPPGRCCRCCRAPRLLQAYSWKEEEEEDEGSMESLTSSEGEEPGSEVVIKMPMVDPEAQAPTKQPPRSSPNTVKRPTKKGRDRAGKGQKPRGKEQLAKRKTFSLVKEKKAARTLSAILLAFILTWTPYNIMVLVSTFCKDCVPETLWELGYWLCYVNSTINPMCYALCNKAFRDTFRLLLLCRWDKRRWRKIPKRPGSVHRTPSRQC
Procedure: as §2

[13] = biological target: T6, Adrenergic Beta2 receptor (Homo sapiens, UniProt P07550); experiment: PDSP radioligand binding; settings: read-out: 3-MP concentration required to induce 50% inhibition of PDSP radioligand binding
T6 construct: NIMH Psychoactive Drug Screening Program (PDSP)
Procedure: as §2

[14] = biological target: δ-opioid receptor (Homo sapiens, UniProt P41143); experiment: PDSP radioligand binding; settings: read-out: 3-MP concentration required to induce 50% inhibition of PDSP radioligand binding
Chain of δ-opioid receptor (P41143 whole entry): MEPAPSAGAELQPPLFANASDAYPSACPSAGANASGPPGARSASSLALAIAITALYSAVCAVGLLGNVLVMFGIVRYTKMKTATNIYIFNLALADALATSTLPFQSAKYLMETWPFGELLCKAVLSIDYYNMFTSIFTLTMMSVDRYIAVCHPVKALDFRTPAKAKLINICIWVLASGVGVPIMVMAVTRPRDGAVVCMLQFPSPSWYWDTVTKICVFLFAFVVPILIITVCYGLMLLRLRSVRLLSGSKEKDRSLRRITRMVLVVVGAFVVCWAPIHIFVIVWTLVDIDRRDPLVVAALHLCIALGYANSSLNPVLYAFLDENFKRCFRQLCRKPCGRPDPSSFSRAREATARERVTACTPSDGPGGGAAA
Procedure: as §2

[15] = biological target: T7, Adrenergic Alpha2C receptor (Homo sapiens, UniProt P18825); experiment: PDSP radioligand binding; settings: read-out: 3-MP concentration required to induce 50% inhibition of PDSP radioligand binding
T7 construct: NIMH Psychoactive Drug Screening Program (PDSP)
T7 sequence (P18825 whole entry): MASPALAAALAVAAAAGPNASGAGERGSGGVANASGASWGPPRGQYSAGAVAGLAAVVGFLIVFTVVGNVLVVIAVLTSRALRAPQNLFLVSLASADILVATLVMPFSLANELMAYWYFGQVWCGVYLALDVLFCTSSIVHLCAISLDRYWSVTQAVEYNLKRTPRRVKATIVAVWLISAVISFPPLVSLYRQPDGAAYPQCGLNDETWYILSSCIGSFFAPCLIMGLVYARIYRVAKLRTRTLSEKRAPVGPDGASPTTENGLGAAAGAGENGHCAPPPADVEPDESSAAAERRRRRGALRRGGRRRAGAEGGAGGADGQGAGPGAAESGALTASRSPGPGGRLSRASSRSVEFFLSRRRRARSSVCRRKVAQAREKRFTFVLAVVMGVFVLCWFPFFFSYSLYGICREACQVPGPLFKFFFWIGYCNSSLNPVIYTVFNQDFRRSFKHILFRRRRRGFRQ
Procedure: as §2

[16] = biological target: T8, Adrenergic Alpha1B receptor (Homo sapiens, UniProt P35368); experiment: PDSP radioligand binding; settings: read-out: 3-MP concentration required to induce 50% inhibition of PDSP radioligand binding
T8 construct: NIMH Psychoactive Drug Screening Program (PDSP)
T8 sequence (P35368 whole entry): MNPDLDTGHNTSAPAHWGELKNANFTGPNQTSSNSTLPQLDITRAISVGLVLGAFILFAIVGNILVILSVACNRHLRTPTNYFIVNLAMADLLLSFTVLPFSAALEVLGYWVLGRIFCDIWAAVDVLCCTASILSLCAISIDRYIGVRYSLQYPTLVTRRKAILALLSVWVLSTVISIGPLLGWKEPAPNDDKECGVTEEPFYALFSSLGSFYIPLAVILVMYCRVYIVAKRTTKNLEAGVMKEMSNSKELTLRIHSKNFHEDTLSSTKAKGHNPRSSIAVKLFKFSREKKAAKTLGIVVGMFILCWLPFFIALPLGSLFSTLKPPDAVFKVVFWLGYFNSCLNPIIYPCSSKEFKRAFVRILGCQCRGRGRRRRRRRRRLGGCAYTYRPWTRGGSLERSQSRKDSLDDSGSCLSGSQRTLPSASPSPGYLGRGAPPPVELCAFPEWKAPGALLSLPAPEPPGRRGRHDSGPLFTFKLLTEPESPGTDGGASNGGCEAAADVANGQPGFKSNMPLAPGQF
Procedure: as §2

[17] = biological target: T9, Adrenergic Alpha2B receptor (Homo sapiens, UniProt P18089); experiment: PDSP radioligand binding; settings: read-out: 3-MP concentration required to induce 50% inhibition of PDSP radioligand binding
T9 construct: NIMH Psychoactive Drug Screening Program (PDSP)
T9 sequence (P18089 whole entry): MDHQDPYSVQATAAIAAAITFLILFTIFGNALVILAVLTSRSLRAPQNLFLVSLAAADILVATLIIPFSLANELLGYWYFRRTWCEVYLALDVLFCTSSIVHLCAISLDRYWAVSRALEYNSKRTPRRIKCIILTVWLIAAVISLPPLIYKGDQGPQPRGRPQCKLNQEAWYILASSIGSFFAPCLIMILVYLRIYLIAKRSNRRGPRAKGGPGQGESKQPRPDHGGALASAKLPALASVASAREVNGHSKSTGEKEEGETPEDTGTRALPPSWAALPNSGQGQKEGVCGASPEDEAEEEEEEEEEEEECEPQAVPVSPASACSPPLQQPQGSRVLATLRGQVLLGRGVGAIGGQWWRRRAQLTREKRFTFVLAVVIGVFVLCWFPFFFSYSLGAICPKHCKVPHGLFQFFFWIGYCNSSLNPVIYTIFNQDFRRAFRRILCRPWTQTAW
Procedure: as §2

[18] = biological target: SERT transporter (Homo sapiens, UniProt P31645); experiment: PDSP radioligand binding; settings: read-out: 3-MP concentration required to induce 50% inhibition of PDSP radioligand binding
Procedure: as §2

[19] = biological target: Dopamine D3 receptor (Homo sapiens, UniProt P35462); experiment: PDSP radioligand binding; settings: read-out: 3-MP concentration required to induce 50% inhibition of PDSP radioligand binding
Chain of Dopamine D3 receptor (P35462 whole entry): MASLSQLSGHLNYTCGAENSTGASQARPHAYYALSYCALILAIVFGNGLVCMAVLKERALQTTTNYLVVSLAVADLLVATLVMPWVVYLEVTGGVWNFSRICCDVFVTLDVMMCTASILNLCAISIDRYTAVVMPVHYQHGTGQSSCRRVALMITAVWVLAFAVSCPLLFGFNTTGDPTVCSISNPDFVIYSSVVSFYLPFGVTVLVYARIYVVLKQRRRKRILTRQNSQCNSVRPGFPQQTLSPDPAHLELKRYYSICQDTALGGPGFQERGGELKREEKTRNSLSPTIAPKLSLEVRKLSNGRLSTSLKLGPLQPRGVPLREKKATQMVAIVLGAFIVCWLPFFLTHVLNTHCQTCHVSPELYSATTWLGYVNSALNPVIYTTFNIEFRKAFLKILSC
Procedure: as §2

[20] = Ex vivo plasma stability, rat; assay type: in vitro ADME; settings: 100 μg/ml, 37 °C, 180 min
Procedure: as §1

[21] = tested on: plasma TNF-α, IL-1β, IL-6, IL-10 in MCAo-challenged rats; experiment: MCAo ischemic stroke: plasma cytokines at 48 h; assay type: in vivo; settings: rat MCAo, 3-MP I.P., plasma at 48 h
[22] = in vitro; settings: Sprague Dawley, rat, microsomes
[23] = iv, rat plasma, I.V. bolus 5 mg/kg

Q: What does the source list for `Nc1cccc2c1C(=S)N(C1CCC(=O)NC1=O)C2=O` (stereo not drawn) [3-MP, 3-Monothiopomalidomide]?
A: AUC(0-inf) [1, 23]: 15200 ng·h/mL; AUC(0-t) [1, 23]: 15100 ng·h/mL; C0 [1, 23]: 8150 ng/mL; clearance ([1]; plasma, iv, rat, I.V. bolus 5 mg/kg): 5.65 mL/min/kg; Vd ([1]; plasma, iv, rat, I.V. bolus 5 mg/kg, read-out: Vdss): 0.693 L/kg; AUC(0-inf) ([1]; po, rat plasma, P.O. 5 mg/kg): 5860 ng·h/mL; AUC(0-t) ([1]; po, rat plasma, P.O. 5 mg/kg): 5560 ng·h/mL; Cmax ([1]; po, rat plasma, P.O. 5 mg/kg): 1020 ng/mL; T1/2 ([1]; rat plasma, P.O. 5 mg/kg, 5 mg/kg): 3.21 h; half-life ([1]; rat, plasma, iv, 5 mg/kg, rat plasma, I.V. bolus 5 mg/kg): 1.56 h; bioavailability ([1]; rat, plasma, oral, 5 mg/kg, rat, P.O. vs I.V., 5 mg/kg): ~38.5%; half-life ([1]; rat, plasma, po, 5 mg/kg, rat plasma, P.O. 5 mg/kg): 3.2 h; Tmax ([1]; rat, plasma, po, 5 mg/kg, rat plasma, P.O. 5 mg/kg, read-out: Tmax): 1.67 h; Tmax ([1]; rat, plasma, po, 5 mg/kg, rat, oral gavage 5 mg/kg, read-out: time of peak concentration in plasma (converted)): 1.67 h; stability in human plasma [2]: relatively stable; LPS-induced cytokine changes in plasma and cerebral cortex [3]: significantly mitigated; reduction of 3-MP levels following 60-min incubation ([4]; 60 min): 8.2%; Remaining (NCF = 60 min) ([4]; microsomes, 1 h): 115.3%; Remaining (T = 60 min) ([4]; microsomes, 1 h): 91.8%; IC50 [5]: > 10 µM; IC50 [6]: > 10 µM; IC50 [7]: > 10 µM; IC50 [8]: > 10 µM; IC50 [9]: > 10 µM; IC50 [10]: > 10 µM; IC50 [11]: > 10 µM; IC50 [12]: > 10 µM; IC50 [13]: > 10 µM; IC50 [14]: > 10 µM; IC50 [15]: > 10 µM; IC50 [16]: > 10 µM; IC50 [17]: > 10 µM; IC50 [18]: > 10 µM; IC50 [19]: > 10 µM; stability in rat plasma [20]: relatively stable; MCAo-induced elevation in plasma IL-1β [21]: significantly mitigated; MCAo-induced elevation in plasma IL-6 [21]: significantly mitigated; MCAo-induced elevation in plasma TNF-α [21]: significantly mitigated; plasma anti-inflammatory IL-10 levels [21]: rise; CLint scaled at 1 μM [22]: < 17.3 mL/min/kg; half-life at 1 μM [22]: > 2.42 h; microsomal CLint at 1 μM [22]: < 9.6 µL/min/mg
